Experimental data: PubChem BioAssay AID2060623 (Molecular Pharmacology Branch, DTP, NCI, 2025)
“And” between values parts separate entries of the source, which are not always exact repeats. Equal entries are not always repeated.

Test system: 227483-062-R1-J1-PDC complex spheroids with HUVEC/MSC, viability
Assay: Anticancer human tumor 227483-062-R1-J1-PDC patient-derived pancreatic carcinoma cell line growth inhibition [CLK]
Conditions: for viability, T/C: stronger effect = lower value
Text: A high-throughput screen of multi-cell type tumor spheroids was designed to identify active combinations of […] and targeted small molecules. Complex spheroids include a stromal component modeled by human endothelial cells (HUVEC) and fibroblasts modeled by human mesenchymal stem cells (MSCs). The concentration ranges selected for each drug and investigational agent were based upon clinically achievable concentrations if the clinical Cmax of the agent was known.
Compounds. The drugs and investigational agents: cirtuvivint (SM08502; NSC835563), CC-671 (NSC850746), vemurafenib (NSC761431), tapotoclax (NSC804041), sotorasib (NSC818433), adagrasib (NSC831453), MRTX-1133 (NSC836407), BAY2416964 (NSC825713), copanlisib (NSC816437), inavolisib (NSC800729), abemaciclib (NSC768073), osimertinib (NSC779217), entinostat (NSC756642), eltanexor (KPT-8602, NSC794443), venetoclax (NSC766270), ceralasertib (NSC777638), bortezomib (NSC756655), olaparib (NSC753686), talazoparib (NSC767125), alisertib (NSC759677), peposertib (NSC802822), gemcitabine (NSC613327), 5-fluorouracil (NSC19893), SN-38 (NSC673596), oxaliplatin (NSC266046), paclitaxel (NSC125973), and doxorubicin (NSC123127), were obtained from the National Cancer Institute (NCI) Developmental Therapeutics Program Chemical Repository. The FDA-approved anticancer drug set is available from the Developmental Therapeutics Program at https://dtp.cancer.gov/organization/dscb/obtaining/available plates.htm. […] The stock solutions were prepared in dimethyl sulfoxide (DMSO, Sigma-Aldrich, St. Louis, MO, cat. D2650), except for the platinum complexes which were prepared in saline (Quality Biological, Gaithersburg, MD, cat. 114-055-101), at 800-fold the tested concentration and stored at -70 degrees C prior to their use. All drugs and investigational agents were tested over a range starting from a high concentration at or near the clinical Cmax and decreasing in half-log increments. If the clinical Cmax for an agent had not been determined, the highest concentration tested was 10 microM.
Cell Culture. All cells were maintained in an incubator at 37 degrees C and 5% CO2 with 95% humidity. The PDC lines were cultured according to standard operating procedures established by the NCI PDMR. Briefly, all PDCs were thawed and cultured in Matrigel-coated flasks prepared with a working solution of 1X Ham's F-12 nutrient mix, without supplementation (Invitrogen, Waltham, MA, cat. 11765054), 100 U/mL penicillin-streptomycin (Invitrogen, cat. 15140122), and 2.5% Matrigel (Corning Inc., Corning, NY, cat. 354248) for the first three passages. The 947758-054-R-J2-PDC line was cultured in 6B/Colon 1A media, which includes advanced DMEM/F-12 (Thermo Fisher Scientific, cat. 12634028), 10 mM HEPES (Thermo Fisher Scientific, cat. 15630080), 1X GlutaMAX supplement (Thermo Fisher Scientific, cat. 35050061), 0.1 mg/mL primocin (InvivoGen, cat. ant-pm-2), 10% defined fetal bovine serum, heat inactivated (HyClone Laboratories Inc., cat. SH30070.03HI), 1.25 mM N-Acetyl-L-cysteine (Sigma-Aldrich, cat. A9165), 10 mM nicotinamide (Sigma-Aldrich, cat. N0636), 1X B-27 supplement (Thermo Fisher Scientific, cat. 17504044), 1X N-2 supplement (Thermo Fisher Scientific, cat. 17502048), and 10 microM Y-27632 dihydrochloride (Tocris Bioscience, cat. 1254). The 876862-298-R-J1-PDC was cultured in 6E media, which includes all 6B/Colon 1A media components plus 50% L-WRN conditioned media (ATCC, cat. CRL-3276), 50 ng/mL recombinant human EGF recombinant protein (hEGF; Thermo Fisher Scientific, cat. PHG0311), 10 ng/mL recombinant human fibroblast growth factor 10 (hGFG-10; PeproTech, cat. 100-26), 1 ng/mL recombinant human fibroblast growth factor 2 (hFGF-2; PeproTech, cat. 100-18B), and 1 µM prostaglandin E2 (PGE2; Tocris, cat. 2296). The 227483-062-R1-J1-PDC line was cultured in Panc media, containing all 6E components except hFGF-2, with the addition of 500 nM SB-431542 (Selleckchem, cat. S1067) and 10 nM gastrin (Tocris, cat. 3006). […]

[1] = curve of first compound, second compound 0.0316 µM
[2] = curve of first compound, second compound 0.1 µM
[3] = curve of first compound, second compound 0.316 µM
[4] = curve of first compound, second compound 1 µM
[5] = curve of first compound, second compound 3.16 µM
[6] = curve of first compound, second compound 10 µM
[7] = second compound 0.0316 µM, first compound 0.0316 µM
[8] = second compound 0.0316 µM, first compound 0.1 µM
[9] = second compound 0.0316 µM, first compound 0.316 µM
[10] = second compound 0.0316 µM, first compound 1 µM
[11] = second compound 0.1 µM, first compound 0.0316 µM
[12] = second compound 0.1 µM, first compound 0.1 µM
[13] = second compound 0.1 µM, first compound 0.316 µM
[14] = second compound 0.1 µM, first compound 1 µM
[15] = second compound 0.316 µM, first compound 0.0316 µM
[16] = second compound 0.316 µM, first compound 0.1 µM
[17] = second compound 0.316 µM, first compound 0.316 µM
[18] = second compound 0.316 µM, first compound 1 µM
[19] = second compound 1 µM, first compound 0.0316 µM
[20] = second compound 1 µM, first compound 0.1 µM
[21] = second compound 1 µM, first compound 0.316 µM
[22] = second compound 1 µM, first compound 1 µM
[23] = second compound 3.16 µM, first compound 0.0316 µM
[24] = second compound 3.16 µM, first compound 0.1 µM
[25] = second compound 3.16 µM, first compound 0.316 µM
[26] = second compound 3.16 µM, first compound 1 µM
[27] = second compound 10 µM, first compound 0.0316 µM
[28] = second compound 10 µM, first compound 0.1 µM
[29] = second compound 10 µM, first compound 0.316 µM
[30] = second compound 10 µM, first compound 1 µM
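Note: spheroids exposed to compounds for seven days before readout.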
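Throughout, for viability, T/C: percent of DMSO vehicle control luminescence as 100% viability.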

Work on Nc1ccccc1NC(=O)c1ccc(CNC(=O)OCc2cccnc2)cc1 + CN1CCN(c2cc(C(=O)Nc3cc4cc(-c5cnn(C)c5)ccc4cn3)ccn2)CC1 yielded an IC50 [1] of over 10000 nM, an IC50 [2] of 1040 nM and an IC50 [3] of under 31.6 nM. For the same compound, the IC50 [4] was under 31.6 nM, the IC50 [5] was under 31.6 nM and the IC50 [6] was under 31.6 nM. For the same compound, the viability, T/C [7] was 106%, the viability, T/C [8] was 108% and the viability, T/C [9] was 107%. It also gave a viability, T/C [10] of 126%, a viability, T/C (second compound 0.0316 µM, first compound 3.16 µM) of 131% and a viability, T/C (second compound 0.0316 µM, first compound 10 µM) of 51.6%. It also gave a viability, T/C [11] of 63.7%, a viability, T/C [12] of 76% and a viability, T/C [13] of 57.4%. For the same compound, the viability, T/C [14] was 48.6%, the viability, T/C (second compound 0.1 µM, first compound 3.16 µM) was 36.9% and the viability, T/C (second compound 0.1 µM, first compound 10 µM) was 17.1%. The viability, T/C [15] was 4.44%, the viability, T/C [16] was 6.25% and the viability, T/C [17] was 7.44%. For the same compound, the viability, T/C [18] was 3.95%, the viability, T/C (second compound 0.316 µM, first compound 3.16 µM) was 1.6% and the viability, T/C (second compound 0.316 µM, first compound 10 µM) was 1.34%. It also gave a viability, T/C [19] of 2.7%, a viability, T/C [20] of 1.53% and a viability, T/C [21] of 1.99%. The viability, T/C [22] was 2.47%, the viability, T/C (second compound 1 µM, first compound 3.16 µM) was 1.45% and the viability, T/C (second compound 1 µM, first compound 10 µM) was 1.58%. It also gave a viability, T/C [23] of 3.26%, a viability, T/C [24] of 4.66% and a viability, T/C [25] of 2.26%. The viability, T/C [26] was 2.68%, the viability, T/C (second compound 3.16 µM, first compound 3.16 µM) was 2.71% and the viability, T/C (second compound 3.16 µM, first compound 10 µM) was 2.41%. It also gave a viability, T/C [27] of 3.24%, a viability, T/C [28] of 1.86% and a viability, T/C [29] of 2.94%. For the same compound, the viability, T/C [30] was 2.31%, the viability, T/C (second compound 10 µM, first compound 3.16 µM) was 2.71% and the viability, T/C (second compound 10 µM, first compound 10 µM) was 1.85%.
Work on CCc1c2c(nc3ccc(O)cc13)-c1cc3c(c(=O)n1C2)COC(=O)[C@]3(O)CC + CNC(=O)c1ccc(Nc2nc(OC3CCCC3)c3c(-c4ccc5nc(C)oc5c4)c[nH]c3n2)c(OC)c1 yielded an IC50 [1] of 205 nM, an IC50 [2] of 176 nM and an IC50 [3] of 64 nM. For the same compound, the IC50 [4] was 11.4 nM, the IC50 [5] was under 3.16 nM and the IC50 [6] was under 3.16 nM. It also gave a viability, T/C (second compound 0.0316 µM, first compound 0.00316 µM) of 121%, a viability, T/C (second compound 0.0316 µM, first compound 0.01 µM) of 96.1% and a viability, T/C [7] of 81.2%. For the same compound, the viability, T/C [8] was 60.5%, the viability, T/C [9] was 41.5% and the viability, T/C [10] was 32.5%. It also gave a viability, T/C (second compound 0.1 µM, first compound 0.00316 µM) of 111%, a viability, T/C (second compound 0.1 µM, first compound 0.01 µM) of 97.1% and a viability, T/C [11] of 69.3%. It also gave a viability, T/C [12] of 64.4%, a viability, T/C [13] of 42.1% and a viability, T/C [14] of 19.8%. It also gave a viability, T/C (second compound 0.316 µM, first compound 0.00316 µM) of 65.2%, a viability, T/C (second compound 0.316 µM, first compound 0.01 µM) of 84.3% and a viability, T/C [15] of 62.2%. It also gave a viability, T/C [16] of 37.8%, a viability, T/C [17] of 24.1% and a viability, T/C [18] of 5.82%. The viability, T/C (second compound 1 µM, first compound 0.00316 µM) was 61.2%, the viability, T/C (second compound 1 µM, first compound 0.01 µM) was 54% and the viability, T/C [19] was 34.1%. For the same compound, the viability, T/C [20] was 19.4%, the viability, T/C [21] was 10.4% and the viability, T/C [22] was 1.96%. The viability, T/C (second compound 3.16 µM, first compound 0.00316 µM) was 44%, the viability, T/C (second compound 3.16 µM, first compound 0.01 µM) was 35.2% and the viability, T/C [23] was 24.2%. It also gave a viability, T/C [24] of 12.6%, a viability, T/C [25] of 7.58% and a viability, T/C [26] of 2.02%. It also gave a viability, T/C (second compound 10 µM, first compound 0.00316 µM) of 33.4%, a viability, T/C (second compound 10 µM, first compound 0.01 µM) of 32.4% and a viability, T/C [27] of 17.1%. It also gave a viability, T/C [28] of 11.4%, a viability, T/C [29] of 6.34% and a viability, T/C [30] of 2.19%.
In the case of CC(=O)O[C@H]1C(=O)[C@@]2(C)[C@H]([C@H](OC(=O)c3ccccc3)[C@]3(O)C[C@H](OC(=O)[C@H](O)[C@@H](NC(=O)c4ccccc4)c4ccccc4)C(C)=C1C3(C)C)[C@]1(OC(C)=O)CO[C@@H]1C[C@@H]2O, the viability, T/C (compound 0.0316 µM) is reported as 37.1% and 25.6%, the viability, T/C (compound 0.1 µM) is reported as 28.5% and 24% and the viability, T/C (compound 0.316 µM) is reported as 28.2% and 29.5%. The viability, T/C (compound 1 µM) was 37.5% and 31.8%, the viability, T/C (compound 3.16 µM) was 50.2% and 38.9% and the viability, T/C (compound 10 µM) was 60.8% and 52.3%. It also gave an IC50 (curve of compound) of under 31.6 nM.
In the case of COC1C=CCC(C)C(C)S(=O)(=O)NC(=O)c2ccc3c(c2)N(CC2CCC21)CC1(CCCc2cc(Cl)ccc21)CO3 (stereo not drawn), the viability, T/C (compound 0.0316 µM) is reported as 93.6% and 86.3%, the viability, T/C (compound 0.1 µM) is reported as 93.9% and 81.1% and the viability, T/C (compound 0.316 µM) is reported as 95.4% and 95.6%. For the same compound, the viability, T/C (compound 1 µM) was 106% and 91.1%, the viability, T/C (compound 3.16 µM) was 97.3% and 83.1% and the viability, T/C (compound 10 µM) was 25.9% and 22.8%. The IC50 (curve of compound) was 6770 nM and 5960 nM.
